From patent publication US8802638B1, “Flavonoid treatment of glycogen synthase kinase-based disease” (University of South Florida, priority 2007, dated 2014)

What was measured:
SweAPP N2a cells = assay: APP proteolysis (Aβ ELISA, IP, APP CTF Western blot) in SweAPP N2a cells; type: cell-based, murine; details: result in words; ELISA/IP/Western blot
Description: (§1) Cultured cells or mouse brain were lysed in ice-cold lysis buffer described above, and an aliquot corresponding to 50 μg of total protein was electrophoretically separated using 12% Tris-HCl or 16.5% Tris-tricine gels. Electrophoresed proteins were then transferred to PVDF membranes, washed in dH2O, and blocked for 1 hr at ambient temperature in Tris-buffered saline (TBS; Bio-Rad) containing 5% (w/v) non-fat dry milk. After blocking, membranes were hybridized for 1 hr at ambient temperature with various primary antibodies. Membranes were then washed 3× for 5 min each in dH2O and incubated for 1 hr at ambient temperature with the appropriate HRP-conjugated secondary antibody (1:1,000). Antibodies were obtained against the amino-terminus and carboxyl-terminus of PS1 (Chemicon, Temecula, Calif.), amino-terminus and carboxyl-terminus of APP (22C11), actin (Roche, Basel, Switzerland), Aβ (6E10, 48G) (Signet Laboratories, Dedham, Mass.), phosphor-GSK3α (ser^21, clone BK202) (Upstate, Lake Placid, N.Y.), phospho-GSK3α/β (pTyr^279/216) (Sigma), phospho-GSK-3β (Ser^9) (Sigma) and total GSK-3α/β (Sigma). All antibodies were diluted in TBS containing 5% (w/v) of non-fat dry milk. Blots were developed using the luminol reagent (Pierce Biotechnology). Densitometric analysis was done as previously described using a FluorS Multiimager with Quantity One™ software (39). Immunoprecipitation was performed for detection of sAPP-α, sAPP-β and Aβ by incubating 200 μg of total protein of each sample with various sequential combinations of 6E10 (1:100) and/or 22C11 (1:100) antibodies overnight with gentle rocking at 4° C., and 10 μL of 50% protein A-Sepharose beads were then added to the sample (1:10; Sigma) prior to gentle rocking for an additional 4 hrs at 4° C. Following washes with 1× cell lysis buffer, samples were subjected to Western blot as described above. Antibodies used for Western blot included the APP-carboxyl-terminal antibody (1:50)), amino-terminal APP antibody (clone 22C11), or 6E10 (1:1,000), or actin antibody (1:1,500; as an internal reference control). γ-secretase activity was quantified in cell lysates using available kits based on secretase-specific peptides conjugated to fluorogenic reporter molecules.
SweAPP N2a cells and primary neuronal cells derived from Tg2576 mice were treated with varying doses of luteolin to examine luteolin's effect on APP proteolysis. Cellular extracts were collected and analyzed using immunoprecipitation (IP), Western blot, and ELISA. […] See FIGS. 1 through 2(B) and 5 through 6(B). SweAPP N2a and primary Tg2576-derived neuronal cells CTF profiles were analyzed following luteolin treatment to determine at which level luteolin impacts amyloid processing.

γ-secretase = molecular target: T1, γ-secretase (Mus musculus, UniProt P49769); assay: fluorometric assay for γ-secretase cleavage activity in SweAPP N2a cell lysates; type: cell-based, murine; details: relative to untreated control
T1 construct: endogenous in cells; host or cells: SweAPP N2a cells (lysates of treated cells)
Description: as §1, with “All antibodies were diluted in TBS containing 5% (w/v) of non-fat dry milk. Blots were developed using the luminol reagent (Pierce Biotechnology).” left out, “Immunoprecipitation was performed for detection of sAPP-α, sAPP-β and Aβ by incubating 200 μg of total protein of each sample with various sequential combinations of 6E10 (1:100) and/or 22C11 (1:100) antibodies overnight with gentle rocking at 4° C., and 10 μL of 50% protein A-Sepharose beads were then added to the sample (1:10; Sigma) prior to gentle rocking for an additional 4 hrs at 4° C. Following washes with 1× cell lysis buffer, samples were subjected to Western blot as described above.” left out
Due to the implications on γ-secretase activity, luteolin's effect on SweAPP N2a cells was analyzed using a fluorometric assay for γ-cleavage.
Cultured cells or mouse brain were lysed in ice-cold lysis buffer described above, and an aliquot corresponding to 50 μg of total protein was electrophoretically separated using 12% Tris-HCl or 16.5% Tris-tricine gels. […] Densitometric analysis was done as previously described using a FluorS Multiimager with Quantity One™ software. […]

TACE, ADAM10, sAPPα = assay: non-amyloidogenic APP processing (TACE, ADAM10 maturation, sAPPα release); type: cell-based; details: data not shown
Source text: The presence of phosphorylated PS1 CTFs corresponds with reduction of Aβ generation and accumulation of the β-CTF of APP, as was observed following luteolin treatment. The accumulation β-CTFs following luteolin treatment is a fraction of β-CTF seen after direct γ-secretase inhibitor treatment (data not shown). In view of this finding, selective GSK-3 inactivation is a less toxic, more regulative, substrate-specific mode of γ-secretase inhibition. Earlier studies routinely employed phorbol-12,13-dibutyrate (PDBu), a potent PKC activator, as their phosphorylating agent. Thus, luteolin was tested for similar PKC activation, rather than a GSK-3 inhibitor. […] Additionally, there are no indications GSK-3α inhibition affects non-amyloidogenic processing of APP, since luteolin, SB-415286, and GSK-3α RNAi treatment have no effect on the maturation of TACE, ADAM10, or sAPPα release (data not shown), which are all strongly associated with PKC activation.

PS1 = assay: Western blot of PS1 C-terminal fragment phosphorylation in SweAPP N2a cells; type: cell-based, murine
Description: as §1, with “(1:1,000).” for “(1:1,000). Antibodies were obtained against the amino-terminus and carboxyl-terminus of PS1 (Chemicon, Temecula, Calif.), amino-terminus and carboxyl-terminus of APP (22C11), actin (Roche, Basel, Switzerland), Aβ (6E10, 48G) (Signet Laboratories, Dedham, Mass.), phosphor-GSK3α (ser^21, clone BK202) (Upstate, Lake Placid, N.Y.), phospho-GSK3α/β (pTyr^279/216) (Sigma), phospho-GSK-3β (Ser^9) (Sigma) and total GSK-3α/β (Sigma).”, “software.” for “software (39).”, “kits (R&D Systems, Minneapolis, Minn.),” for “kits”
The two bands of highest molecular weight, approximately 20 kD and 18 kD in size, represent phosphorylated PS1 CTFs with a smaller 16 kD band representing the more common CTF product indicative of PS1 endoproteolytic cleavage.
To confirm that the 20 kD and 18 kD bands were phosphorylated PS1 isoforms, SweAPP N2a cells were treated with luteolin (20 μM) prior to lysis and cell lysates incubated with calf intestine alkaline phosphatase (CIAP) (Fermentas, Hanover, Md.), to dephosphorylate any potential phosphorylated proteins, to eliminate skewing of electrophorectic mobilities. Following 30 minutes of incubation, the 20 kD band is not evident in the CIAP treated lysates, seen in FIGS. 21(A) through 22, and the 18 kD band reduced while endogenous CTF, 16 kD, appears to accumulate. When compared to lysates incubated with only reaction buffer, phosphorylated residues decrease in a time dependent manner, shown by the 20 kD CTF:16 kD CTF. […] Luteolin affects PS1 phosphorylation and may indicate a means by which γ-secretase activity may be regulated.
To determine if this phenomenon was specifically attributable to luteolin treatment or more generally in regards to GSK-3 inhibition, SweAPP N2a cells were treated with a range of doses of the GSK-3 inhibitor SB-415286 (BIOMOL®, Plymouth Meeting, Pa.). […] FIG. 24(B). GSK-3α and β was successfully knocked-down (>70%, data not shown) with siRNA in SweAPP N2a cells, substantiating the role of GSK-3α in this luteolin-mediated PS1 processing. […]

PS1-APP association = assay: PS1-APP association, immunoprecipitation/Western blot in SweAPP N2a cells; type: cell-based, murine; details: 20 μM for 4 hrs or siRNA transfection
Description: as §1, with “(1:1,000).” for “(1:1,000). Antibodies were obtained against the amino-terminus and carboxyl-terminus of PS1 (Chemicon, Temecula, Calif.), amino-terminus and carboxyl-terminus of APP (22C11), actin (Roche, Basel, Switzerland), Aβ (6E10, 48G) (Signet Laboratories, Dedham, Mass.), phosphor-GSK3α (ser^21, clone BK202) (Upstate, Lake Placid, N.Y.), phospho-GSK3α/β (pTyr^279/216) (Sigma), phospho-GSK-3β (Ser^9) (Sigma) and total GSK-3α/β (Sigma).”, “software.” for “software (39).”, “kits (R&D Systems, Minneapolis, Minn.),” for “kits”
Cell lysates of luteolin-treated SweAPP N2a cells were immunoprecipitated by PS1 antibody and probed for APP to clarify how phospho-PS1 CTF isoforms may regulate γ-secretase activity, seen in FIGS. 26(A) through 27(B). As illustrated in FIGS. 26(A) and (B), the APP-PS1 association is disrupted by luteolin, SB-415286 treatment, and GSK-3α siRNA. […] Thus, GSK-3α or, more specifically, downstream phosphorylation of the PS1 CTF plays an essential role in regulating the association of γ-secretase complex with its APP substrate.

GSK-3α/β = assay: Western blot of phosphorylated GSK-3α/β forms in SweAPP N2a cells; type: cell-based, murine; details: SweAPP N2a cells co-treated with luteolin or SB-415286 and GF109203X; data not shown
Description: as §1, with “Immunoprecipitation was performed for detection of sAPP-α, sAPP-β and Aβ by incubating 200 μg of total protein of each sample with various sequential combinations of 6E10 (1:100) and/or 22C11 (1:100) antibodies overnight with gentle rocking at 4° C., and 10 μL of 50% protein A-Sepharose beads were then added to the sample (1:10; Sigma) prior to gentle rocking for an additional 4 hrs at 4° C. Following washes with 1× cell lysis buffer, samples were subjected to Western blot as described above.” left out
The effect luteolin had on a variety of proteins related to and/or required for proper functioning of the γ-secretase complex was evaluated to establish the mechanism whereby luteolin modulates γ-secretase activity and subsequent Aβ generation. […]

[1] = diosmetin formed from diosmin by intestinal flora; cited from earlier work
Tg2576 mice = details: 0.05% diosmin diet for 6 months

Structure (SMILES): O=c1cc(-c2ccc(O)cc2)oc2cc(O)cc(O)c12 [apigenin, reference compound]
- Aβ1-40, 42 production (SweAPP N2a cells): did not reduce Aβ1-40, 42 production to the same level as luteolin, diosmetin, and diosmin
- γ-secretase cleavage activity (γ-secretase): results were not similar to luteolin

Structure (SMILES): O=C1NC(=O)C(c2ccccc2[N+](=O)[O-])=C1Nc1ccc(O)c(Cl)c1 [SB-415286, reference compound]
- maturation of TACE, ADAM10, or sAPPα release (TACE, ADAM10, sAPPα): no effect
- PS1 CTF phosphorylation (phospho-PS1 CTF to PS1 CTF ratio) (PS1): Alterations in phospho-PS1 CTF:PS1 CTF ratios were similar to prior experiments
- Aβ1-40, 42 production (SweAPP N2a cells): congruent decreases in Aβ1-40, 42 generation
- ratio of APP to actin (full-length APP levels) (PS1-APP association; 6E10 Western blot of lysates): no significant changes
- APP-PS1 association (PS1-APP association; IP with anti-PS1 CTF, 6E10 blot): disrupted

Structure (SMILES): CN(C)CCCn1cc(C2=C(c3c[nH]c4ccccc34)C(=O)NC2=O)c2ccccc21 [GF109203X, reference compound]
- PS1 CTF phosphorylation (phospho-PS1 CTF to PS1 CTF ratio) (PS1): Minor decreases in 20 kD and 18 kD phospho-PS1 CTF isoforms
- GSK-3 inhibition on co-treatment with PKC inhibitor (GSK-3α/β): no effect on GSK-3 inhibition

Structure (SMILES): COc1ccc(-c2cc(=O)c3c(O)cc(O)cc3o2)cc1O [diosmetin]
- PS1 CTF phosphorylation (phospho-PS1 CTF to PS1 CTF ratio) (PS1): just as efficacious as luteolin
- plasma half-life [1]: > 26 h
- γ-secretase cleavage activity (γ-secretase): just as efficacious as luteolin

Structure (SMILES): COc1ccc(-c2cc(=O)c3c(O)cc(O[C@@H]4O[C@H](CO[C@@H]5O[C@@H](C)[C@H](O)[C@@H](O)[C@H]5O)[C@@H](O)[C@H](O)[C@H]4O)cc3o2)cc1O [diosmin]
- Aβ plaque burden (4G8 stained sections, image analysis) (Tg2576 mice): significantly reduced throughout the brain
